Values joined by “and” are separate entries in the source; they are usually repeats but may differ in a detail not shown here. Identical values can stand only once.
Tests used:
Ω-amidase in corn leaves = assay: Treatment of corn leaves with ω-amidase inhibitor DON (foliar spray); type: in vivo
Experimental: (§1) HPLC Assay for 2-oxoglutaramate: HPLC was used to assay 2-oxoglutaramate, following a modification of Calderon et al., 1985, J Bacteriol 161(2): 807-809. Briefly, 2-oxoglutaramate was extracted from plant tissue in distilled de-ionized water acidified to less than pH 2.0 with HCl using a weight to volume ratio of 2:1. 2-Oxoglutaramate was detected and quantified by HPLC, using an ION-300 7.8 mm ID×30 cm L column, with a mobile phase in 0.01NH2SO4, a flow rate of approximately 0.2 ml/min, at 40° C. Injection volume is approximately 20 and retention time between about 38 and 39 minutes. Detection is achieved with 210 nm UV light. Authentic 2-oxoglutaramate was used to calibrate the assay.
(§2) Ω-amidase activity was determined using the 96-well plate assay as described in Krasnikov et al., 2009, Analytical Biochemistry 391: 144-150.
(§3) Columbia nutrient solution was utilized (Knight and Weissman, 1982, Plant Physiol. 70: 1683).
Plants were grown in sand at 24° C. using a 16 hour/day light and 8 hour/day dark photoperiod. Seeds were germinated in the sand and allowed to grow for 9-14 days after seedling emergence. Seedlings (1 per 3 inch pot) were provided nutrients daily. The top of each pot was covered with Saran plastic film, with a slit cut to allow the seedlings room to emerge, in order to prevent treatment solution from reaching the soil. Leaves were treated by spraying DON treatment/nutrient solution twice daily. The DON treatment/nutrient solution contained 1 microgram/ml DON, 50 micoliters/liter SILWET L77 (a surfactant) and 0.02 vol/vol % glycerol (a humectant) at pH 6.3, dissolved in nutrient solution. Control plants were sprayed daily with the same solution without DON. An airbrush was used to apply the solutions until drip. Plants were sacrificed and analyzed for fresh weight, ω-amidase activity, and 2-oxoglutaramate concentrations in leaf and root tissue 14 days after initiation of treatment.

Ω-amidase in bean roots = assay: Treatment of pole bean roots with ω-amidase inhibitor DON (hydroponic); type: in vivo
Experimental: as §1, §2, §3
(§4) Plants were grown hydroponically at 24° C. using a 16 hour/day light and 8 hour/day dark photoperiod. Seeds were first germinated and seedlings were grown for 9 days, at which time the individual seedlings were suspended with their roots in the nutrient solution (600 ml of nutrient, pH 6.3) in an 800 ml beaker covered with aluminum foil, with a slit for the seedlings, to prevent algal growth. The beakers were aerated with air provided by a small pump and delivered into the solution through a glass Pasteur pipette. For the treatments, DON was added to the nutrient solution to a final concentration of 1 microgram per ml. Thus DON was supplied continuously to the treated seedlings. The controls were grown in the same nutrient solution without DON. The solutions were refreshed every third day. Plants were sacrificed and analyzed for fresh weight, ω-amidase activity, and 2-oxoglutaramate concentrations in leaf and root tissue 14 days after initiation of treatment.

Ω-amidase in corn roots = assay: Treatment of sweet corn roots with ω-amidase inhibitor DON (hydroponic); type: in vivo
Experimental: as §1, §2, §3, §4

[1] = test system: GPT (glutamine phenylpyruvate transaminase), substrate glutamine; assay: Kinetic analysis of GPT substitution mutants expressed in E. coli; type: biochemical, Arabidopsis; settings: enzyme expressed in E. coli
Experimental: Maximal velocity was determined using the formula: Vmax=Kcat[E]tot. The apparent unimolecular rate constant kcat is also called turnover number and denotes the maximum number of enzymatic reactions catalyzed per second.
This mutant GPT enzyme may be expected to produce more product, the 2-oxoglutaramate, per unit time than the wild type GPT when the concentration of the substrate glutamine is present in millimolar or greater quantities, thus assuring that the […] is saturating.

[2] = leaf treatment with DON, average of treated plants
[3] = leaves sprayed twice daily with 1 microgram/ml DON, 14 days (Table 17)
[4] = bean, root treatment 1 microgram per ml DON, 14 days
[5] = root treatment 1 microgram per ml DON, 14 days

Molecule: [N-]=[N+]=CC(=O)CC[C@H](N)C(=O)O [DON, 6-diazo-5-oxo-nor-leucine]
- corn plant fresh weights versus untreated (Ω-amidase in corn leaves; leaf treatment with DON): near doubling
- increase of 2-oxoglutaramate in leaves over untreated plants (Ω-amidase in corn leaves; leaf treatment with DON): more than 7 fold
- leaf ω-amidase activity relative to untreated plants (Ω-amidase in corn leaves; leaf treatment with DON): about 50%
- Amidase activity Leaf (Ω-amidase in corn leaves; [2]): 0.135 μmole/gfw/hr
- Whole Plant Fresh Wt, Average (Ω-amidase in corn leaves; [2]): 21.4 g
- 2-Oxoglutaramate Concentration (Ω-amidase in corn leaves; leaf treatment with DON, average of treated plants (Table 18)): 838.8 nmoles/gfwt
- Whole Plant Fresh Wt (Ω-amidase in corn leaves; leaf treatment with DON, individual treated plants): 20.9 g and 19.2 g and 24.3 g
- 2-OGM LEAF (Ω-amidase in corn leaves; [3]): 753.9 nmoles/gfwt
- 2-OGM ROOT (Ω-amidase in corn leaves; [3]): 126.8 nmoles/gfwt
- LEAF/ROOT RATIO (2-OGM) (Ω-amidase in corn leaves; [3]): 5.0
- ω-amidase activity (Ω-amidase in bean roots; bean, continuous DON treatment of roots): None of the DON treated plants had detectable levels of ω-amidase activity
- growth (Ω-amidase in bean roots; bean, continuous DON treatment of roots, versus untreated control plants): severely stunted growth
- 2-OGM LEAF (Ω-amidase in bean roots; [4]): 279 nmoles/gfwt
- 2-OGM ROOT (Ω-amidase in bean roots; [4]): 1586 nmoles/gfwt
- LEAF/ROOT RATIO (2-OGM) (Ω-amidase in bean roots; [4]): 0.18
- % INCREASE IN FWT (Ω-amidase in bean roots; bean, roots in nutrient solution with 1 microgram per ml DON continuously, 14 days after initiation of treatment): 198%
- increase of 2-oxoglutaramate in roots (Ω-amidase in bean roots; beans, root treatment with DON, versus control): 15 fold
- ω-amidase activity (Ω-amidase in corn roots; continuous DON treatment of roots): None of the DON treated plants had detectable levels of ω-amidase activity
- growth (Ω-amidase in corn roots; continuous DON treatment of roots, versus untreated control plants): severely stunted growth
- 2-OGM ROOT (Ω-amidase in corn roots; [5]): 2288 nmoles/gfwt
- LEAF/ROOT RATIO (2-OGM) (Ω-amidase in corn roots; [5]): 0.13
- 2-OGM LEAF (Ω-amidase in corn roots; root treatment 1 microgram per ml DON, 14 days, 2-OGM = 2-oxoglutaramate): 300 nmoles/gfwt
- increase of 2-oxoglutaramate in roots (Ω-amidase in corn roots; root treatment with DON, versus control): over 30 fold
- % INCREASE IN FWT (Ω-amidase in corn roots; roots in nutrient solution with 1 microgram per ml DON continuously, 14 days after initiation of treatment): 174%

B1: GPT/F:V mutant: mutant GPT from the natural Arabidopsis GPT, substituting V (valine) for the F (phenylalanine) residue in NLGQGFP; expressed in E. coli (protein)
chain: MYLDINGVMIKQFSFKASLLPFSSNFRQSSAKIHRPIGATMTTVSTQNESTQKPVQVAKRLEKFKTTIFTQMSILAVKHGAINLGQGVPNFDGPDFVKEAAIQAIKDGKNQYARGYGIPQLNSAIAARFREDTGLVVDPEKEVTVTSGCTEAIAAAMLGLINPGDEVILFAPFYDSYEATLSMAGAKVKGITLRPPDFSIPLEELKAAVTNKTRAILMNTPHNPTGKMFTREELETIASLCIENDVLVFSDEVYDKLAFEMDHISIASLPGMYERTVTMNSLGKTFSLTGWKIGWAIAPPHLTWGVRQAHSYLTFATSTPAQWAAVAALKAPESYFKELKRDYNVKKETLVKGLKEVGFTVFPSSGTYFVVADHTPFGMENDVAFCEYLIEEVGVVAIPTSVFYLNPEEGKNLVRFAFCKDEETLRGAIERMKQKLKRKV
modifications: synthetic Arabidopsis glutamine phenylpyruvate transaminase (GPT) mutant GPT/FV with V substitution in conserved region at position 88
notes: mutant GPT from the natural Arabidopsis GPT, substituting V (valine) for the F (phenylalanine) residue in NLGQGFP; expressed in E. coli
- Km [1]: 750 µM
- increase of Vmax over the wild type [1]: 20%
- Vmax ([1]; same amount of protein): 6.04

Reference: patent US9068194B2, “Increasing plant growth by modulating omega-amidase expression in plants” (Los Alamos National Security, LLC, priority 2010, dated 2015)
